Test results: patent publication US10537103B2, “Antibacterial composition containing an isomer mixture of monosaccharide alkyl monoacetals or monoethers” (TEREOS STARCH & SWEETENERS BELGIUM, priority 2014, dated 2020)
≈ marks a conversion by molar mass, not a printed value. Where two headings read alike, the source gives them in different places.

Key:
[1] = test system: E. faecium strains (CIP 103510, Van A, 1401); assay: MIC on a wider panel of strains (Example 10), microdilution; assay type: cell-based; details: Enterococcus faecium, CIP103510
Description: (§1) The cultures studied, freshly isolated (after incubation on a blood agar at 37° C. for 18 h), are taken up in sterile water (10 mL) until obtaining a 0.5 McFarland (Mc) suspension i.e. 1 to 1 to 2×10^8 CFU (bacteria)/cm^3. The bacterial suspension was then diluted to obtain a final concentration of 1×10^6 CFU/cm^3.
(§2) Each well contains an identical quantity of Mueller-Hinton medium (a rich medium for bacterial culture) and bacteria with final [concentration of] 0.5×10^6 CFU/cm^3.
(§3) The test compounds of interest are solubilized in ethanol or DMSO at 25 mg/mL before being diluted to different concentrations two by two. On the multiwell plate, a first series has been planned comprising the culture medium without the test compound of interest. It corresponds to the growth control (control well). These controls serve as reference for comparing bacterial growth with that of the subsequent wells comprising different concentrations of the test compound of interest. The second series of wells comprises the mother solution for the test compound of interest for a concentration in the wells of 256 mg/L (7 mM). Each series of wells was diluted two by two until the last series for a final concentration of 0.25 mg/L (0.0007 mM). Each concentration is duplicated in the same plate. The plate is incubated for 18 h at 37° C. […] If there is antibacterial activity, the bacterial growth is inhibited, which means that no turbidity or bacterial residue is present.
(§4) The minimum inhibitory concentrations (MIC) are tested on Gram-positive bacterial strains according to the recommendations of the “Clinical Laboratory Standards Institute” (Clinical-Laboratory-Standards-Institute, 6th ed. Approved standard M100-S17. CLSI, Wayne, Pa., 2007). The clinical strains have been isolated in the Hospice de Lyon.
Enterococci: E. faecium (CIP 103510), clinical strains of Enterococci E. faecium: Van A 0151850763 (hereinafter Van A); strain 015 205731401 (hereinafter 1401),
as §1, with “At 10^8” for “1 to 1 to 2×10^8”, “10^6” for “1×10^6”

[2] = test system: Staphylococcus S. aureus strains (ATCC, methicillin-resistant, daptomycin-resistant); assay: MIC on a wider panel of strains (Example 10), microdilution; assay type: cell-based
Description: as §1, §2, §3, §4
Staphylococci S. aureus: ATCC® 29213™, ATCC 25923,
as §1, with “At 10^8” for “1 to 1 to 2×10^8”, “10^6” for “1×10^6”

[3] = test system: E. faecalis strains (ATCC 29212, 9901, 1801); assay: as above; assay type: cell-based; details: Enterococcus faecalis, ATCC29212
Description: The cultures studied, freshly isolated (after incubation on a blood agar at 37° C. for 18 h), are taken up in sterile water (10 mL) until obtaining a 0.5 McFarland (Mc) suspension i.e. 1 to 1 to 2×10^8 CFU (bacteria)/cm^3. The bacterial suspension was then diluted to obtain a final concentration of 1×10^6 CFU/cm^3. Each well contains an identical quantity of Mueller-Hinton medium (a rich medium for bacterial culture) and bacteria with final [concentration of] 0.5×10^6 CFU/cm^3. The test compounds of interest are solubilized in ethanol or DMSO at 25 mg/mL before being diluted to different concentrations two by two. On the multiwell plate, a first series has been planned comprising the culture medium without the test compound of interest. It corresponds to the growth control (control well). These controls serve as reference for comparing bacterial growth with that of the subsequent wells comprising different concentrations of the test compound of interest. The second series of wells comprises the mother solution for the test compound of interest for a concentration in the wells of 256 mg/L (7 mM). Each series of wells was diluted two by two until the last series for a final concentration of 0.25 mg/L (0.0007 mM). Each concentration is duplicated in the same plate. The plate is incubated for 18 h at 37° C. […] If there is antibacterial activity, the bacterial growth is inhibited, which means that no turbidity or bacterial residue is present. The minimum inhibitory concentrations (MIC) are tested on Gram-positive bacterial strains according to the recommendations of the “Clinical Laboratory Standards Institute” (Clinical-Laboratory-Standards-Institute, 6th ed. Approved standard M100-S17. CLSI, Wayne, Pa., 2007). The clinical strains have been isolated in the Hospice de Lyon. Enterococci: E. faecalis (ATCC® 29212™), clinical enterococci strains E. faecalis isolated from urines: strain 015206179901 (hereinafter 9901), strain 015205261801 (hereinafter 1801) The cultures studied, freshly isolated (after incubation on a blood agar at 37° C. for 18 h), are taken up in sterile water (10 mL) until obtaining a 0.5 McFarland (Mc) suspension i.e. At 10^8 CFU (bacteria)/cm^3. The bacterial suspension was then diluted to obtain a final concentration of 10^6 CFU/cm^3.

[4] = E. faecium CIP 103510, read-out: MIC Enterococcus CIP 103510
[5] = E. faecium clinical strain Van A 0151850763, read-out: MIC Enterococcus Van A
[6] = methicillin-resistant, HT 2002-0417, read-out: MIC S. aureus HT 2002-0417
[7] = methicillin-resistant, HT 2006-1004, read-out: MIC S. aureus HT 2006-1004
[8] = methicillin-resistant, LY 199-0053, read-out: MIC S. aureus LY 199-0053
[9] = methicillin-resistant, Lac-Deleo USA 300, read-out: MIC S. aureus USA 300
[10] = methicillin-resistant, MU 3, read-out: MIC S. aureus MU 3
[11] = strain ATCC 25923, read-out: MIC S. aureus ATCC 25923
[12] = strain ATCC 29213, read-out: MIC S. aureus ATCC 29213
[13] = E. faecalis ATCC 29212, read-out: MIC Enterococcus ATCC 29212

SMILES	MIC [1, 4] [µg/mL]	MIC [1, 5] [µg/mL]	melting point [°C]	MIC ([2]; Staphylococcus, all strains of Table 6, read-out: MIC, staphylococcus strains tested) [µg/mL]	MIC [2, 6] [µg/mL]	MIC ([2]; methicillin-resistant, HT 2004-0012, read-out: MIC S. aureus HT 2004-0012) [µg/mL]	MIC [2, 7] [µg/mL]	MIC [2, 8] [µg/mL]	MIC [2, 9] [µg/mL]	MIC [2, 10] [µg/mL]	MIC [2, 11] [µg/mL]	MIC [2, 12] [µg/mL]	MIC [3, 13] [µg/mL]	MIC ([1]; E. faecium clinical strain 015 205731401, read-out: MIC Enterococcus 1401) [µg/mL]	MIC ([2]; daptomycin-resistant, ST 2014 1288, read-out: MIC S. aureus ST 2014 1288) [µg/mL]	MIC ([2]; daptomycin-resistant, ST 2015-0188, read-out: MIC S. aureus ST 2015 0188) [µg/mL]	MIC ([2]; daptomycin-resistant, ST 2015-0989, read-out: MIC S. aureus ST 2015 0989) [µg/mL]	MIC ([3]; E. faecalis clinical strain 015205261801, from urines, read-out: MIC Enterococcus 1801) [µg/mL]	MIC ([3]; E. faecalis clinical strain 015206179901, from urines, read-out: MIC Enterococcus 9901) [µg/mL]
CCCCCCCCCCCC1OCC2O[C@H](OC)C(O)C(O)[C@@H]2O1 (stereo partly drawn) [Compound 1e, Methyl 4,6-O-Dodecylidene α-D-glucopyranoside]	256 (≈ 710 µM)	256 (≈ 710 µM)	69	> 256	256 (≈ 710 µM)	256 (≈ 710 µM)	256 (≈ 710 µM)	256 (≈ 710 µM)	256 (≈ 710 µM)	256 (≈ 710 µM)	256 (≈ 710 µM)	256 (≈ 710 µM)	256 (≈ 710 µM)	–	–	–	–	–	–
CCCCCCCCCCCC1OCC2O[C@@H](OC)C(O)C(O)[C@@H]2O1 (stereo partly drawn) [Compound 1f, Methyl 4,6-O-Dodecylidene β-D-glucopyranoside]	32 (≈ 88.8 µM)	32 (≈ 88.8 µM)	84	–	128 (≈ 355 µM)	–	64 (≈ 178 µM)	64 (≈ 178 µM)	64 (≈ 178 µM)	64 (≈ 178 µM)	64 (≈ 178 µM)	64 (≈ 178 µM)	64 (≈ 178 µM)	16 (≈ 44.4 µM)	64 (≈ 178 µM)	64 (≈ 178 µM)	64 (≈ 178 µM)	8 (≈ 22.2 µM)	32 (≈ 88.8 µM)
